From patent US9220746B2, “Compounds and methods for treating bone disorders and controlling weight” (The University of North Carolina at Chapel Hill, priority 2009, dated 2015)

Key:
[1] = test system: 3T3L1; assay: Fat cell differentiation of 3T3L1 cells, oil red O staining; type: cell-based
Method: In some assays, fat cell data were obtained by using the cell line 3T3L1, which is used to study fat cell differentiation. These cells are grown as fat cell precursors. These cells are maintained in Hams F12 with fetal calf serum and 15 mM glutamine. To stimulate them to enter the fat cell differentiation pathway, isomethylbutylxanine, dexamethasone and insulin are added using concentrations of 0.5 mM IBMX 16.7 nM insulin and 0.1 uM dexamethasone. In some cases 100 ng/ml IGF-I was added instead of insulin. Three days after the addition, differentiation into adipocytes is apparent and is detected by oil red O staining.
To determine the effects of the peptide of SEQ ID NO:1, it was added at concentrations of 20 ng/ml, 200 ng/ml and 2 ug/ml. A detectable inhibition of adipocyte differentiation, as determined by a decrease in the number of oil red O positive cells, was detected using 20 ng/ml of peptide. The response was maximal at 200 ng/ml and not increased further by adding 2 mcg/ml.
For oil red O staining, a stock solution of […] isoproponol is prepared. 60 ml of solution is mixed with 40 ml of water and allowed to sit at room temperature for an hour and then filtered. The media is aspirated from the adipocyte cultures and cells are fixed in 1% formaldehyde. Formaldehyde is aspirated and the oil red O solution is added in an amount necessary to cover the cells, which are then left at room temperature for one hour. The stain is then removed and the plates are washed with distilled water and dried. Typically 60-70% of the cells stain positive after 3 days.

[2] = test system: primary mouse preadipocytes; assay: Differentiation of primary mouse preadipocytes, oil red O staining; type: cell-based; conditions: peptide 2 ng to 2 ug/ml
Method: The maximum effect of the peptide was to inhibit differentiation to a level wherein <20% of the cells were positive. These findings were reconfirmed using primary mouse preadipocytes. 35-50 day old mice were killed and inguinal fat pads were removed aseptically. Fat tissue was washed and dissolved in Hanks basic salt solution containing 0.1% glucose and 2 mg/ml collagenase, (type 3 Worthington) and 4% BSA. Following 15 min digestion at 37°, the tissue was separated by dispersion and pipetting and then filtered through an 80 micron sterile nylon filter. The cells were then plated in DMEM F12 containing 10% fetal calf serum and then centrifuged at 700×g to separate the stromal vascular cells from the adipocytes, which float. The supernatant was discarded and the cell pellet which contained the stromal vascular cells was resuspended in DMEM F12 with 10% FCS and plated at a density of 15,000 cells/cm^2. The medium was aspirated 24 hr later and fresh medium was replaced every 3 days until the cells reached 80-90% confluence. Differentiation was induced by adding serum free medium containing 25 mM glucose, 10 ug/ml transferin, 10 nM T3, 10-7 dexamethasone, 5 ug/ml HDL and 16.7 nM insulin. This was added to cultures that were between […]. […] The IGFBP-2 had been purified from cellular conditioned medium and was determined to be homogenous by amino acid sequence analysis.

[3] = test system: metacarpals; assay: Metacarpal culture ex vivo (calcein incorporated area, length, width); type: cell-based, mouse; conditions: 10 days, IGFBP2 200 ng/ml, peptides 2 μg/ml, vs PBS
Method: FIG. 2. The heparin binding domain of IGFBP2 enhances periosteal expansion of metacarpals ex vivo. Metacarpals were collected from day 1 male mouse, and treated with osteogenic media with IGFBP2 (200 ng/ml) or the heparin-binding domain peptide (HBD-peptide) (2 μg/ml) in the presence or absence of IGF-1 (20 ng/ml) for 10 days. Bones were labeled with calcein (500 ng/ml) and calcein incorporated area was visualized (a) and longitudinal length of calcein incorporated area was quantified (b). Alcian blue and Von Kossa double staining was performed (c) and length and width of metacarpals were quantified (d). Statistical difference was analyzed by ANOVA followed by Bonferroni post-hoc test. Figures shown represent at least 3 independent experiments. Values are expressed as the mean±SEM (n=3-4). ^a; <0.05 vs PBS, ^b; <0.01 vs PBS, ^c; <0.001 vs PBS, ^d; <0.01 vs HBD, ^e; <0.05 vs IGF-I, ^f; <0.05 vs HBD.
Metacarpals were isolated from Igfbp2^−/− mice at 1-day old and incubated in DMEM containing 0.5% BSA, 50 μg/ml ascorbic acid and 1 mM β-glycerol phosphate for 10 days^54. Stimulants were added to culture media from day 1. At day 10, metacarpals were incubated in media containing calcein (500 ng/ml) for 2 hours for staining of calcium deposition, and images were obtained. Then, bones were fixed with 4% PFA, embedded in paraffin, and processed for Alcian blue and von Kossa double staining.

Molecule: KHHLGLEEPKKLR (IGFBP-2 heparin binding domain-containing peptide sequence) [peptide of SEQ ID NO:1]
- concentration at which inhibition of adipocyte differentiation (decrease in oil red O positive cells) was detectable ([1]; 3T3L1, added at 20 ng/ml, 200 ng/ml and 2 ug/ml): 20 ng/mL
- concentration at which the response (inhibition of adipocyte differentiation) was maximal ([1]; 3T3L1, not increased further by 2 mcg/ml): 200 ng/mL
- oil red O positive cells at maximum effect of the peptide ([1]; typically 60-70% of the cells stain positive after 3 days): < 20%
- inhibition of adipocyte differentiation [2]: reconfirmed

B1: IGFBP-2: Insulin-like growth factor binding protein-2, 36,000 dalton protein, purified from cellular conditioned medium (protein, UniProt P18065 36-325, looked up)
Insulin-like growth …: AEVLFRCPPCTPERLAACGPPPVAPPAAVAAVAGGARMPCAELVREPGCGCCSVCARLEGEACGVYTPRCGQGLRCYPHPGSELPLQALVMGEGTCEKRRDAEYGASPEQVADNGDDHSEGGLVENHVDSTMNMLGGGGSAGRKPLKSGMKELAVFREKVTEQHRQMGKGGKHHLGLEEPKKLRPPPARTPCQQELDQVLERISTMRLPDERGPLEHLYSLHIPNCDKHGLYNLKQCKMSLNGQRGECWCVNPNTGKLIQGAPTIRGDPECHLFYNEQQEARGVHTQRMQ
- concentrations found to inhibit adipocyte differentiation ([1]; 3T3L1, tested in parallel): 50 to 500 ng/mL
- calcein incorporated area of metacarpals ([3]; IGF-1 20 ng/ml): significantly enhanced
- width (and length) of metacarpals [3]: increased the width of metacarpals
